Measurements taken from patent US9861625B2, “Methods and compositions for treating cancer through inhibition of PI3K” (Duke University, priority 2014, dated 2018).

System: 21 established DLBCL cell lines
Assay: MTT viability assay of DLBCL cell lines with and without MTOR mutations
Assay type: cell-based
Conditions: on average; FIG. 1G
Procedure: Lymphoma cell lines were cultured with RPMI1640 media supplemented with 10% v/v Fetal Bovine Serum (FBS) and 1% v/v Penicillin/Streptomycin supplied at 10,000 U penicillin and 10 mg streptomycin/ml (BJAB, Farage, Karpas422, Pfieffer, RL, SCI 1, SKI, Toledo, U2932, WSU_NHL, HT), or RPMI1640 supplemented with 15% v/v FBS and 1% v/v P/S (RCK8, SUDH4, SUDHL7), Iscove's modified Dulbecco's medium (IMDM) supplemented with 20% v/v human plasma and 1% P/S ([…]), or alpha-MEM media supplemented with 10% FBS and 1% P/S (TMD8). Cells were grown in a 5% CO2 environment at 37° C.
The effect the PI3K inhibitor drug BKM120 (Novartis) on lymphoma cell lines was assayed on 96-well format using MTT viability assays. 40,000 cells were grown in drug at 10 concentrations: 25 μM, and nine serial 1:2 dilutions down to 0.05 μM. For each condition tested, there were five technical replicates. Two controls were included: media only and drug-free cells. If the IC50 was not reached within this drug concentration range, the experiment was repeated with an additional drug concentration of […]. […] 100 μl of MTT detergent solution was added, and color was developed in the dark at room temperature overnight, after which 570 nm absorbance was measured. After normalization to control wells, the IC50 values were calculated. […]

## Nc1cc(C(F)(F)F)c(-c2cc(N3CCOCC3)nc(N3CCOCC3)n2)cn1 [BKM120]
  sensitivity of cell lines with MTOR mutations (HT, Ly1, SUDHL7) versus the other 18 cell lines: fivefold higher sensitivity
